Test results published in US20230002357A1, “7-PYRIMIDINE-2-YL-OXY-INDAZOLE DERIVATIVES AND THEIR USE AS HERBICIDES” (SYNGENTA CROP PROTECTION AG, priority 2019, published 2023).

Key:
Assay type in all cases: in vivo
Conditions in all cases: 250 g/ha, evaluated after 13 days
IPOHE [1] = experiment: Post-emergence Test, glasshouse, IPOHE
Protocol: (§1) Seeds of a variety of test species are sown in standard soil in pots Amaranthus retoflexus (AMARE), Echinochloa crus-galli (ECHCG), Setaria faberi (SETFA)). After cultivation for one day (pre-emergence) or after 8 days cultivation (post-emergence) under controlled conditions in a glasshouse (at 24/16° C., day/night; 14 hours light; 65% humidity), the plants are sprayed with an aqueous spray solution derived from the formulation of the technical active ingredient in acetone/water (50:50) solution containing 0.5% Tween™ 20 (polyoxyethelyene sorbitan monolaurate, CAS RN 9005-64-5). Compounds are applied at 250 g/ha unless otherwise stated. The test plants are then grown in a glasshouse under controlled conditions in a glasshouse (at 24/16° C., day/night; 14 hours light; 65% humidity) and watered twice daily. After 13 days for pre- and post-emergence, the test is evaluated for the percentage damage caused to the plant. The biological activities are shown in the following table on a five-point scale (5=81-100%; 4=61-80%; 3=41-60%; 2=21-40%; 1=0-20%).

ABUTH [2] = experiment: Pre-emergence Test, glasshouse, ABUTH
Protocol: as §1

[3] = tested on: Echinochloa crus-galli (ECHCG); experiment: Pre-emergence Test, glasshouse, ECHCG
Protocol: as §1

IPOHE [4] = experiment: Pre-emergence Test, glasshouse, IPOHE
Protocol: as §1

ABUTH [5] = experiment: Post-emergence Test, glasshouse, ABUTH
Protocol: as §1

[6] = tested on: Amaranthus retoflexus (AMARE); experiment: Pre-emergence Test, glasshouse, AMARE
Protocol: as §1

Setaria faberi (SETFA) [7] = experiment: Pre-emergence Test, glasshouse, SETFA
Protocol: as §1

[8] = tested on: Echinochloa crus-galli (ECHCG); experiment: Post-emergence Test, glasshouse, ECHCG
Protocol: as §1

[9] = tested on: Amaranthus retoflexus (AMARE); experiment: Post-emergence Test, glasshouse, AMARE
Protocol: as §1

Setaria faberi (SETFA) [10] = experiment: Post-emergence Test, glasshouse, SETFA
Protocol: as §1

Structure (SMILES)	percentage damage caused to the plant, five-point scale, IPOHE (IPOHE [1])	percentage damage caused to the plant, five-point scale, ABUTH (ABUTH [2])	percentage damage caused to the plant, five-point scale, ECHCG [3]	percentage damage caused to the plant, five-point scale, IPOHE (IPOHE [4])	percentage damage caused to the plant, five-point scale, ABUTH (ABUTH [5])	percentage damage caused to the plant, five-point scale, AMARE [6]	percentage damage caused to the plant, five-point scale, SETFA (Setaria faberi (SETFA) [7])	percentage damage caused to the plant, five-point scale, ECHCG [8]	percentage damage caused to the plant, five-point scale, AMARE [9]	percentage damage caused to the plant, five-point scale, SETFA (Setaria faberi (SETFA) [10])
FC(F)(F)CCCn1ncc2cccc(Oc3ncc(Cl)cn3)c21 [Compound 1.001, 7-(5-chloropyrimidin-2-yl)oxy-1-(4,4,4-trifluorobutyl)indazole]	1 (1=0-20%)	4 (4=61-80%)	5 (5=81-100%)	1 (1=0-20%)	4 (4=61-80%)	4 (4=61-80%)	5 (5=81-100%)	3 (3=41-60%)	2 (2=21-40%)	4 (4=61-80%)
FC(F)(F)CCCn1ncc2c(Cl)cc(Cl)c(Oc3ncc(Cl)cn3)c21 [Compound 1.018]	1 (1=0-20%)	1 (1=0-20%)	1 (1=0-20%)	1 (1=0-20%)	1 (1=0-20%)		1 (1=0-20%)	1 (1=0-20%)	1 (1=0-20%)	1 (1=0-20%)
FC(F)(F)CCCn1nnc2cccc(Oc3ncc(Cl)cn3)c21 [Compound 1.020, 7-(5-chloropyrimidin-2-yl)oxy-1-(4,4,4-trifluorobutyl) benzotriazole]	2 (2=21-40%)	4 (4=61-80%)		2 (2=21-40%)	3 (3=41-60%)	5 (5=81-100%)	5 (5=81-100%)		2 (2=21-40%)	5 (5=81-100%)
Cc1nn(CCCC(F)(F)F)c2c(Oc3ncc(Cl)cn3)cccc12 [Compound 1.021, 7-(5-chloropyrimidin-2-yl)oxy-3-methyl-1-(4,4,4-trifluorobutyl)indazole]	3 (3=41-60%)	3 (3=41-60%)		2 (2=21-40%)	4 (4=61-80%)	5 (5=81-100%)	5 (5=81-100%)		1 (1=0-20%)	4 (4=61-80%)
FC(F)(F)CCCn1nc(C(F)(F)F)c2cccc(Oc3ncc(Cl)cn3)c21 [Compound 1.022, 7-(5-chloropyrimidin-2-yl)oxy-1-(4,4,4-trifluorobutyl)-3-(trifluoromethyl)indazole]	4 (4=61-80%)	4 (4=61-80%)	5 (5=81-100%)	4 (4=61-80%)	5 (5=81-100%)	5 (5=81-100%)	5 (5=81-100%)		5 (5=81-100%)	5 (5=81-100%)
COc1cc(Oc2cccc3nnn(CCCC(F)(F)F)c23)ncn1 [Compound 1.023]	1 (1=0-20%)	1 (1=0-20%)		1 (1=0-20%)	1 (1=0-20%)	1 (1=0-20%)	1 (1=0-20%)		1 (1=0-20%)	1 (1=0-20%)
N#Cc1cc(Oc2ncc(Cl)cn2)c2c(cnn2CCCC(F)(F)F)c1 [Compound 1.024]	1 (1=0-20%)	1 (1=0-20%)		1 (1=0-20%)	2 (2=21-40%)	4 (4=61-80%)	4 (4=61-80%)		2 (2=21-40%)	1 (1=0-20%)
FC(F)(F)CCCn1ncc2c(Br)ccc(Oc3ncc(Cl)cn3)c21 [Compound 1.025]	1 (1=0-20%)	1 (1=0-20%)		1 (1=0-20%)	2 (2=21-40%)	1 (1=0-20%)	2 (2=21-40%)		2 (2=21-40%)	2 (2=21-40%)
FC(F)(F)CCCn1nc(Cl)c2c(Cl)ccc(Oc3ncc(Cl)cn3)c21 [Compound 1.026]	2 (2=21-40%)	2 (2=21-40%)	5 (5=81-100%)	1 (1=0-20%)	4 (4=61-80%)	5 (5=81-100%)	3 (3=41-60%)		5 (5=81-100%)	5 (5=81-100%)
FC(F)(F)CCCn1nc(Cl)c2c(Cl)cc(Cl)c(Oc3ncc(Cl)cn3)c21 [Compound 1.027]	1 (1=0-20%)	1 (1=0-20%)		1 (1=0-20%)	2 (2=21-40%)	4 (4=61-80%)	1 (1=0-20%)	4 (4=61-80%)	4 (4=61-80%)	3 (3=41-60%)
FC(F)(F)CCCn1nc(Cl)c2c(Br)ccc(Oc3ncc(Cl)cn3)c21 [Compound 1.028]	1 (1=0-20%)	1 (1=0-20%)		1 (1=0-20%)	2 (2=21-40%)	4 (4=61-80%)	2 (2=21-40%)		5 (5=81-100%)	3 (3=41-60%)
N#Cc1ccc(Oc2ncc(Cl)cn2)c2c1c(Cl)nn2CCCC(F)(F)F [Compound 1.029]	1 (1=0-20%)	1 (1=0-20%)		1 (1=0-20%)	1 (1=0-20%)	2 (2=21-40%)	1 (1=0-20%)		4 (4=61-80%)	1 (1=0-20%)
N#Cc1cc(Oc2ncc(Cl)cn2)c2c(c1)c(Cl)nn2CCCC(F)(F)F [Compound 1.030]	1 (1=0-20%)	1 (1=0-20%)		1 (1=0-20%)	1 (1=0-20%)	1 (1=0-20%)	1 (1=0-20%)	2 (2=21-40%)	4 (4=61-80%)	2 (2=21-40%)
Fc1cc(Cl)cnc1Oc1cccc2c(Cl)nn(CCCC(F)(F)F)c12 [Compound 1.032]	3 (3=41-60%)	1 (1=0-20%)	3 (3=41-60%)	1 (1=0-20%)	3 (3=41-60%)	3 (3=41-60%)	4 (4=61-80%)	3 (3=41-60%)	5 (5=81-100%)	
